Measurements taken from patent US12662469B2 (SIRONAX LTD, priority 2018, dated 2026).
Where two headings read alike, the source gives them in different places.

Test system: Cell Necrosis
Assay: Cell necrosis assay / cell viability assay (necrosis inhibitor activity)
Type: cell-based
[1] = necrosis inhibitor activity, compounds outside 14-191, read-out: EC50
[2] = necrosis inhibitor activity, EC data for 14-191 extrapolated, read-out: EC50

Structure (SMILES): CC1Oc2ccc(OC3CN(C(=O)N4N=CC[C@H]4c4cc(F)cc(F)c4)C3)cc2NC1=O (stereo partly drawn) [Compound 349, 6-((1-((S)-5-(3,5-difluorophenyl)-4,5-dihydro-1H-pyrazole-1-carbonyl)azetidin-3-yl)oxy)-2-methyl-2H-benzo[b][1,4]oxazin-3(4H)-one]
- EC50 [1]: 1 to 1000 nM

Structure (SMILES): O=C(N1CC(=Cc2cc3[nH]nc(F)c3cc2F)C1)N1N=CC[C@H]1c1cc(F)cc(F)c1 [Compound 301, (S)-(3-((3,5-difluoro-1H-indazol-6-yl)methylene)azetidin-1-yl)(5-(3,5-difluorophenyl)-4,5-dihydro-1H-pyrazol-1-yl)methanone]
- EC50 [1]: 1 to 1000 nM

Structure (SMILES): C[C@H]1CN(c2ncc(F)cn2)CCN1C(=O)N1OCC[C@H]1c1ccccc1 [Compound 109, ((S)-4-(5-fluoropyrimidin-2-yl)-2-methylpiperazin-1-yl)((S)-3-phenylisoxazolidin-2-yl)methanone]
- EC50 [2]: 1 to 1000 nM

Structure (SMILES): NC(=O)c1cc(Cl)nc(O[C@H]2CCN(C(=O)N3N=CC[C@H]3c3cc(F)cc(F)c3)C2)c1 [Compound 331, 2-chloro-6-(((S)-1-((S)-5-(3,5-difluorophenyl)-4,5-dihydro-1H-pyrazole-1-carbonyl)pyrrolidin-3-yl)oxy)isonicotinamide]
- EC50 [1]: 1 to 1000 nM

Structure (SMILES): O=C(N1CC(=Cc2ccc(F)cc2)C1)N1N=CCC1c1cc(F)cc(F)c1 (centres unmarked) [Compound 306, (5-(3,5-difluorophenyl)-4,5-dihydro-1H-pyrazol-1-yl)(3-(4-fluorobenzylidene)azetidin-1-yl)methanone]
- EC50 [1]: 1 to 1000 nM

Structure (SMILES): NC(=O)c1c(F)cc(OC2CN(C(=O)N3N=CCC3c3cc(F)cc(F)c3)C2)cc1F (centres unmarked) [Compound 156]
- EC50 [2]: 1 to 1000 nM

Structure (SMILES): O=C(N1CCCN(c2ncc(F)cn2)CC1)N1N=CCC1c1ccccc1 (centres unmarked) [Compound 96, (4-(5-fluoropyrimidin-2-yl)-1,4-diazepan-1-yl)(5-phenyl-4,5-dihydro-1H-pyrazol-1-yl)methanone]
- EC50 [2]: 1000 to 10000 nM

Structure (SMILES): N#Cc1cncc(O[C@@H]2CCN(C(=O)N3N=CC[C@H]3c3cc(F)cc(F)c3)C2)n1 [Compound 335, 6-(((R)-1-((S)-5-(3,5-difluorophenyl)-4,5-dihydro-1H-pyrazole-1-carbonyl)pyrrolidin-3-yl)oxy)pyrazine-2-carbonitrile]
- EC50 [1]: 1 to 1000 nM

Structure (SMILES): N#Cc1ccnc(O[C@@H]2CCN(C(=O)N3N=CC[C@H]3c3cc(F)cc(F)c3)C2)c1 [Compound 336, 2-(((R)-1-((S)-5-(3,5-difluorophenyl)-4,5-dihydro-1H-pyrazole-1-carbonyl)pyrrolidin-3-yl)oxy)isonicotinonitrile]
- EC50 [1]: 1 to 1000 nM

Structure (SMILES): NC(=O)c1cnc(OC2CN(C(=O)N3N=CC[C@H]3c3cc(F)cc(F)c3)C2)s1 [Compound 280, (S)-2-((1-(5-(3,5-difluorophenyl)-4,5-dihydro-1H-pyrazole-1-carbonyl)azetidin-3-yl)oxy)thiazole-5-carboxamide]
- EC50 [1]: 1 to 1000 nM

Structure (SMILES): O=C(N1CC(Oc2nc(Cl)ncc2F)C1)N1N=CC[C@H]1c1cc(F)cc(F)c1 [Compound 267]
- EC50 [1]: 1 to 1000 nM

Structure (SMILES): N#Cc1cncc(C2CC=NN2C(=O)N2CC(Oc3cc4[nH]nc(F)c4cc3F)C2)c1 (centres unmarked) [Compound 381, 5-(1-(3-((3,5-difluoro-1H-indazol-6-yl)oxy)azetidine-1-carbonyl)-4,5-dihydro-1H-pyrazol-5-yl)nicotinonitrile]
- EC50 [1]: 1 to 1000 nM

Structure (SMILES): O=C(N1CC(Nc2ccccc2)C1)N1N=CCC1c1ccccc1 (centres unmarked) [Compound 19, (5-phenyl-4,5-dihydro-1H-pyrazol-1-yl)(3-(phenylamino)azetidin-1-yl)methanone]
- EC50 [2]: 1000 to 10000 nM

Structure (SMILES): O=C(N1CC(=Cc2ccc3[nH]cnc3c2)C1)N1N=CC[C@H]1c1cc(F)cc(F)c1 [Compound 284]
- EC50 [1]: 1 to 1000 nM

Structure (SMILES): N#Cc1ccc(O[C@@H]2CCN(C(=O)N3N=CC[C@H]3c3cc(F)cc(F)c3)C2)cc1 [Compound 343, 4-(((R)-1-((S)-5-(3,5-difluorophenyl)-4,5-dihydro-1H-pyrazole-1-carbonyl)pyrrolidin-3-yl)oxy)benzonitrile]
- EC50 [1]: 1 to 1000 nM

Structure (SMILES): O=C1COc2cc(F)c(OC3CN(C(=O)N4N=CC[C@H]4c4cccc(F)c4)C3)cc2N1 [Compound 200, (S)-7-fluoro-6-((1-(5-(3-fluorophenyl)-4,5-dihydro-1H-pyrazole-1-carbonyl)azetidin-3-yl)oxy)-2H-benzo[b][1,4]oxazin-3(4H)-one]
- EC50 [1]: 1 to 1000 nM

Structure (SMILES): O=C(N1CC(=Cc2cc(F)ncc2F)C1)N1N=CC[C@H]1c1cc(F)cc(F)c1 [Compound 329]
- EC50 [1]: 1 to 1000 nM

Structure (SMILES): CC1CCCN(C(=O)N2N=CCC2c2ccccc2)C1 (centres unmarked) [Compound 9, (3-methylpiperidin-1-yl)(5-phenyl-4,5-dihydro-1H-pyrazol-1-yl)methanone]
- EC50 [1]: 1 to 1000 nM

Structure (SMILES): CN(C)CCC1Oc2cc(F)c(OC3CN(C(=O)N4N=CC[C@H]4c4cc(F)cc(F)c4)C3)cc2NC1=O (stereo partly drawn) [Compound 249, 6-((1-((S)-5-(3,5-difluorophenyl)-4,5-dihydro-1H-pyrazole-1-carbonyl)azetidin-3-yl)oxy)-2-(2-(dimethylamino)ethyl)-7-fluoro-2H-benzo[b][1,4]oxazin-3(4H)-one]
- EC50: 1 to 1000 nM

Structure (SMILES): CNC(=O)c1csc(OC2CN(C(=O)N3N=CCC3c3cc(F)cc(F)c3)C2)n1 (centres unmarked) [Compound 171]
- EC50 [2]: 1 to 1000 nM

Structure (SMILES): C[C@H]1CN(c2ncc(F)cn2)CCN1C(=O)N1N=CCC1c1ccccc1 (stereo in doubt) [Compound 111B, (S)-(4-(5-fluoropyrimidin-2-yl)-2-methylpiperazin-1-yl)(5-phenyl-4,5-dihydro-1H-pyrazol-1-yl)methanone]
- EC50 [2]: 1000 to 10000 nM

Structure (SMILES): O=C(N1CC(=Cc2cccc(F)c2)C1)N1N=CCC1c1ccccc1 (centres unmarked) [Compound 45, (3-(3-fluorobenzylidene)azetidin-1-yl)(5-phenyl-4,5-dihydro-1H-pyrazol-1-yl)methanone]
- EC50 [2]: 1 to 1000 nM

Structure (SMILES): CNC(=O)c1cc2sc(OC3CN(C(=O)N4N=CC[C@H]4c4cc(F)cc(F)c4)C3)nc2[nH]1 [Compound 258, (S)-2-((1-(5-(3,5-difluorophenyl)-4,5-dihydro-1H-pyrazole-1-carbonyl)azetidin-3-yl)oxy)-N-methyl-4H-pyrrolo[2,3-d]thiazole-5-carboxamide]
- EC50 [1]: 1 to 1000 nM

Structure (SMILES): CNC(=O)c1coc(OC2CN(C(=O)N3N=CCC3c3cc(F)cc(F)c3)C2)n1 (centres unmarked) [Compound 173]
- EC50 [2]: 1 to 1000 nM

Structure (SMILES): CC(=O)Nc1nccc(O[C@@H]2CCN(C(=O)N3N=CC[C@H]3c3cc(F)cc(F)c3)C2)n1 [Compound 368, N-(4-(((R)-1-((S)-5-(3,5-difluorophenyl)-4,5-dihydro-H-pyrazole-1-carbonyl)pyrrolidin-3-yl)oxy)pyrimidin-2-yl)acetamide]
- EC50 [1]: 1 to 1000 nM

Structure (SMILES): O=C1COc2cc(F)c(O[C@@H]3CCN(C(=O)N4N=CC[C@H]4c4cc(F)cc(F)c4)C3)cc2N1 [Compound 196]
- EC50 [1]: 1 to 1000 nM

Structure (SMILES): COC(=O)c1cc2sc(OC3CN(C(=O)N4N=CC[C@H]4c4cc(F)cc(F)c4)C3)nc2[nH]1 [Compound 257, methyl (S)-2-((1-(5-(3,5-difluorophenyl)-4,5-dihydro-1H-pyrazole-1-carbonyl)azetidin-3-yl)oxy)-4H-pyrrolo[2,3-d]thiazole-5-carboxylate]
- EC50 [1]: 1 to 1000 nM

Structure (SMILES): COc1cccc(CC2CN(C(=O)N3N=CCC3c3ccccc3)C2)c1 (centres unmarked) [Compound 39, (3-(3-methoxybenzyl)azetidin-1-yl)(5-phenyl-4,5-dihydro-1H-pyrazol-1-yl) methanone]
- EC50 [2]: 1 to 1000 nM

Structure (SMILES): O=C(N1CC(Oc2ccc(-c3ncc[nH]3)cc2)C1)N1N=CC[C@H]1c1cc(F)cc(F)c1 [Compound 219, (S)-(3-(4-(1H-imidazol-2-yl)phenoxy)azetidin-1-yl)(5-(3,5-difluorophenyl)-4,5-dihydro-1H-pyrazol-1-yl)methanone]
- EC50 [1]: 1 to 1000 nM

Structure (SMILES): O=C(N1CCN(c2ncc(F)cn2)CC1)N1N=CCC1c1cc(F)cc(F)c1 (centres unmarked) [Compound 101, (5-(3,5-difluorophenyl)-4,5-dihydro-1H-pyrazol-1-yl)(4-(5-fluoropyrimidin-2-yl)piperazin-1-yl)methanone]
- EC50 [2]: 1 to 1000 nM

Structure (SMILES): O=C(N1CCN(c2nccs2)CC1)N1N=CCC1c1ccccc1 (centres unmarked) [Compound 92, (5-phenyl-4,5-dihydro-1H-pyrazol-1-yl)(4-(thiazol-2-yl)piperazin-1-yl)methanone]
- EC50 [2]: 1 to 1000 nM

Structure (SMILES): N#CCCNc1ncc(F)c(OC2CN(C(=O)N3N=CC[C@H]3c3cc(F)cc(F)c3)C2)n1 [Compound 269, (S)-3-((4-((1-(5-(3,5-fluorophenyl)-4,5-dihydro-1H-pyrazole-1-carbonyl)azetidin-3-yl)oxy)-5-fluoropyrimidin-2-yl)amino)propanenitrile]
- EC50 [1]: 1 to 1000 nM

Structure (SMILES): O=C(Nc1nc(N2CCN(C(=O)N3N=CC[C@H]3c3cc(F)cc(F)c3)CC2)ncc1F)C1CCC1 [Compound 328, (S)—N-(2-(4-(5-(3,5-difluorophenyl)-4,5-dihydro-1H-pyrazole-1-carbonyl)piperazin-1-yl)-5-fluoropyrimidin-4-yl)cyclobutanecarboxamide]
- EC50 [1]: 1 to 1000 nM

Structure (SMILES): O=C(N1CC(=Cc2ccc(F)cc2)C1)N1N=CCC1c1cc(F)cc(F)c1 (centres unmarked) [Compound 57, (5-(3,5-difluorophenyl)-4,5-dihydro-1H-pyrazol-1-yl)(3-(4-fluorobenzylidene)azetidin-1-yl)methanone]
- EC50 [2]: 1 to 1000 nM

Structure (SMILES): O=C(N1CC(Oc2ccc(OCc3ccccc3)nc2)C1)N1N=CCC1c1cc(F)cc(F)c1 (centres unmarked) [Compound 211, (3-((6-(benzyloxy)pyridin-3-yl)oxy)azetidin-1-yl)(5-(3,5-difluorophenyl)-4,5-dihydro-1H-pyrazol-1-yl)methanone]
- EC50 [1]: 1 to 1000 nM

Structure (SMILES): O=C(N1CC(=Cc2ccc3c(c2)NC(=O)C3(F)F)C1)N1N=CC[C@H]1c1cc(F)cc(F)c1 [Compound 283, (S)-6-((1-(5-(3,5-difluorophenyl)-4,5-dihydro-1H-pyrazole-1-carbonyl)azetidin-3-ylidene)methyl)-3,3-difluoroindolin-2-one]
- EC50 [1]: 1 to 1000 nM

Structure (SMILES): Nc1ccnc(N2CCN(C(=O)N3N=CCC3c3ccccc3)CC2)n1 (centres unmarked) [Compound 102, (4-(4-aminopyrimidin-2-yl)piperazin-1-yl)(5-phenyl-4,5-dihydro-1H-pyrazol-1-yl)methanone]
- EC50 [2]: 1000 to 10000 nM

Structure (SMILES): N#Cc1cnc(N2CCN(C(=O)N3N=CCC3c3ccccc3)CC2)s1 (centres unmarked) [Compound 108, 2-(4-(5-phenyl-4,5-dihydro-H-pyrazole-1-carbonyl)piperazin-1-yl)thiazole-5-carbonitrile]
- EC50 [2]: 1 to 1000 nM
